Laboratory results taken from patent US20250179057A1, “MEK IMMUNE ONCOLOGY INHIBITORS AND THERAPEUTIC USES THEREOF” (Immuneering Corporation, priority 2022, published 2025).
Read-outs that look alike come from different tables or passages of the source.

Experiments:
in vitro = conditions: human; for Papp A→B at 2 h, 10 μM: Caco-2, Mean Papp A-B (10^-6 cm/s); for Papp B→A at 2 h, 10 μM: Caco-2, Mean Papp B-A (10^-6 cm/s)
[1] = tested on: phospho-MEK in MeWo cells; test: pMEK/tMEK ratio in MeWo melanoma model; format: cell-based; conditions: MeWo (NF1 LoF); 100 nM
Method: (§1) Compound (drug) treatment: Cells were plated in a 6-well plate at a density of 250,000-300,000 cells/well in 3 mL media and incubated 37° C. in a humidified, 5% CO2 incubator. […] These solutions were added to the cells (3 uL/well), mixed by swirling the plate, and incubated at 37° C. in a humidified, 5% CO2 incubator for 2 hours.
(§2) Cell lysis and protein estimation: Cells were washed with PBS, and scraped in 50 μL of lysis buffer containing protease and phosphatase inhibitors. Cell lysates were stored at −20° C. Cell lysates were thawed and spun at 12,000 rpm for one minute, 3 ul of the supernatant was added to 500 μL of Coomassie blue reagent following by 500 μL of water. […] Protein standards were used (0-20 mg/mL) to calculate protein concentrations of test samples.
(§3) All samples were heated at 95° C. for 5 minutes, cooled to room temperature and spun down. […] After the run, gel was removed and protein transfer was done using iBlot for 7 minutes, as per manufacturer's recommendations. After the transfer, nitrocellulose membrane was incubated on a shaker in 5 mL of blocking buffer at room temperature for 1 hr. The blot was then incubated overnight on a shaker in 5 ml of blocking buffer containing 0.2% Tween-20 and primary antibody, at room temperature. Anti-phospho-STAT3 antibody was used at a dilution of 1:500, the other 3 primary antibodies were used at a dilution of 1:1000.
(§4) Next day, the blot was washed 3 times for 10 min each with 10 mL of TBST followed by incubation on a shaker in 5 ml of blocking buffer containing 0.2% Tween-20 and 0.5 ul of the IRDye labeled secondary antibodies, diluted 1:10000, at room temperature for 1 hr. The blot was then washed 3 times for 10 min each with 10 mL of TBST and dried between sheets of paper towels. Imaging was done using LICOR's Odyssey imaging system, quantitation was done using their software, Image Studio version 3.1.
(§5) The nine models are described in Table 16.

[2] = tested on: phospho-MEK in SK-MEL-2 cells; test: pMEK/tMEK ratio in SK-MEL-2 melanoma model; format: cell-based; conditions: SK-MEL-2 (NRAS p.Q61R); 100 nM
Method: as §1, §2, §3, §4, §5

[3] = tested on: phospho-MEK in MEL-JUSO cells; test: pMEK/tMEK ratio in MEL-JUSO melanoma model; format: cell-based; conditions: MEL-JUSO (HRAS p.G13D, NRAS p.Q61L); 100 nM
Method: as §1, §2, §3, §4, §5

[4] = tested on: phospho-MEK in SK-MEL-30 cells; test: pMEK/tMEK ratio in SK-MEL-30 melanoma model; format: cell-based
Method: as §1, §2, §3, §4, §5

[5] = PubChem Compound Summary; cited from earlier work

Structure (SMILES) | Papp A→B at 2 h, 10 μM (in vitro) [×10⁻⁶ cm/s] | Papp B→A at 2 h, 10 μM (in vitro) [×10⁻⁶ cm/s] | pMEK/tMEK ratio normalized to DMSO [1] | pMEK/tMEK ratio normalized to DMSO [2] | pMEK/tMEK ratio normalized to DMSO [3] | pMEK/tMEK ratio normalized to DMSO ([4]; SK-MEL-30 (NRAS p.Q61K), 100 nM) | efflux ratio at 2 h, 10 μM (in vitro; Caco-2, Mean (B-A/A-B) (Efflux Ratio)) | human plasma drug half-life [5] [h] | pMEK/tMEK ratio normalized to DMSO [4]
CNS(=O)(=O)Nc1nccc(Cc2c(C)c3ccc(Oc4ncccn4)cc3oc2=O)c1F [Reference-2, reference compound] | 18.1 | 20.9 |  |  |  |  |  |  | 
CNS(=O)(=O)Nc1cccc(Cc2c(CN(C)C)c3ccc(OC(=O)N(C)C)cc3oc2=O)c1Cl [Compound 274, 3-(2-chloro-3-((N-methylsulfamoyl)amino)benzyl)-4-((dimethylamino)methyl)-2-oxo-2H-chromen-7-yl dimethylcarbamate] |  |  | 0.904 | 0.518 | 0.548 | 0.609 |  |  | 
Cn1cnc2c(F)c(Nc3ccc(Br)cc3Cl)c(C(=O)NOCCO)cc21 [Reference-1, Selumetinib] | 8.83 | 28.2 | 5.483 | 2.055 | 2.988 |  | 3.19 | ≥ 6.2 | 2.177
